According to patent US20210115018A1, “PIPERIDINE COMPOUNDS AS COVALENT MENIN INHIBITORS” (THE REGENTS OF THE UNIVERSITY OF MICHIGAN, priority 2018, published 2021):
pIC50: −log10 of the molar value.

Columns and labels:
menin protein = target: T1, menin protein (Homo sapiens, UniProt O00255); assay: Fluorescence polarization (FP) competitive binding assay, menin binding affinity; conditions: FP competition with FAM-MM2 probe 2 nM, menin 4 nM, 30 minutes room temperature
T1 sequence (O00255 1-610): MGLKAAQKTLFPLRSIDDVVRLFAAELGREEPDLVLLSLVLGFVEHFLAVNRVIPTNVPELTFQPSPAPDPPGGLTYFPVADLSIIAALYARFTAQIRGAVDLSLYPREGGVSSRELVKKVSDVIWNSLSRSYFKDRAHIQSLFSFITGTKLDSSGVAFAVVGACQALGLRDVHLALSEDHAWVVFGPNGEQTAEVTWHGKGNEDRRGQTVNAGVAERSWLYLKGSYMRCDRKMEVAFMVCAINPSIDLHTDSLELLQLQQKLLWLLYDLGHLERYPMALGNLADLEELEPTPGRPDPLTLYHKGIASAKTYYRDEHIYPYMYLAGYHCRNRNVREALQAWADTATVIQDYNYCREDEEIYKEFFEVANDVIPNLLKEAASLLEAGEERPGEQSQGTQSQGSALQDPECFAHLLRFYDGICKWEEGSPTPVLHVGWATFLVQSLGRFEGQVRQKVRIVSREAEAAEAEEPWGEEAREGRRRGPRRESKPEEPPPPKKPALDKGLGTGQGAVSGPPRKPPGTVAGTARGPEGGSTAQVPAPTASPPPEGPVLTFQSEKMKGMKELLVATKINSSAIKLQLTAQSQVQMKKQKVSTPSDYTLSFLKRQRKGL
How it was run: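 Competitive FP with FAM-labeled MLL1 peptide probe FAM-MM2 (2 nM) and menin (4 nM) in PBS, 0.02% bovine γ-globulin, 4% DMSO, 0.01% Triton X-100. After 30 min at room temperature, mP read at 485/530 nm; IC50 from nonlinear regression against probe-only and complex-only controls.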

MOLM13 = assay: 7-day proliferation assay (WST-8), cell growth inhibition; format: cell-based; conditions: Homo sapiens, MOLM-13, 168 h, MOLM13 cells, 7 days
How it was run: (§1)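 Cells seeded at 2,000-3,000/well were exposed to serially diluted compound for 7 days at 37° C., 5% CO2. Viability was read by WST-8 absorbance at 450 nm after 1-2 h color development; readings normalized to DMSO-treated cells, IC50 by four-parameter nonlinear regression.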

MV4-11 = assay: as above; format: cell-based; conditions: Homo sapiens, MV4-11, 168 h, MV4-11 cells, 7 days
How it was run: as §1

| pIC50 (menin protein) | IC50 (MOLM13) [nM] | IC50 (MV4-11) [nM] | Structure (SMILES) |
| --- | --- | --- | --- |
| 8.70 | < 100 | < 10 | COC(=O)N[C@H]1CCC[C@@H]1[C@](CN1CCC1)(c1cccc(F)c1)C1CCN(CC2CN(c3ccc(S(=O)(=O)C4CN(C(=O)/C=C/CN5CCCC5)C4)cc3)C2)CC1 [Cpd. No. 20, methyl ((1S,2R)-2-((S)-2-(azetidin-1-yl)-1-(3-fluorophenyl)-1-(1-((1-(4-((1-((E)-4-(pyrrolidin-1-yl)but-2-enoyl)azetidin-3-yl)sulfonyl)phenyl)azetidin-3-yl)methyl)piperidin-4-yl)ethyl)cyclopentyl)carbamate] |
| 8.70 | < 10 | < 10 | COC(=O)N[C@H]1CCC[C@@H]1[C@](CN1CCC1)(c1cccc(F)c1)C1CCN(CC2CN(c3ccc(S(=O)(=O)C4CN(C(=O)/C=C/CN5CC(F)C5)C4)cc3)C2)CC1 [Cpd. No. 174] |
| 8.05 | < 100 | < 10 | COC(=O)N[C@H]1CCC[C@@H]1[C@](CN1CCC1)(c1cccc(F)c1)C1CCN(CC2CN(c3ccc(S(=O)(=O)C4CN(C(=O)/C=C/CN5CCC(C)(O)CC5)C4)cc3)C2)CC1 [compound 99] |
| 9.00 | < 10 | < 10 | C=CC(=O)N1CCCCC(S(=O)(=O)c2ccc(N3CC(F)(CN4CCC([C@@](CN5CCC5)(c5cccc(F)c5)[C@H]5CCC[C@@H]5NC(=O)OC)CC4)C3)cc2)C1 (stereo partly drawn) [compound 215] |
| 8.70 | < 100 | < 50 | C=CC(=O)N1CCOC[C@@H](S(=O)(=O)c2ccc(N3CC(F)(CN4CCC([C@@](CN5CCC5)(c5cccc(F)c5)[C@H]5CCC[C@@H]5NC(=O)OC)CC4)C3)c(F)c2)C1 [compound 216] |
| 8.70 | < 100 | < 10 | C=CC(=O)N1CCOC[C@@H](S(=O)(=O)c2ccc(N3CC(C)(CN4CCC([C@@](CN5CCC5)(c5cccc(F)c5)[C@H]5CCC[C@@H]5NC(=O)OC)CC4)C3)c(F)c2)C1 [compound 217] |
| 8.70 | < 1000 | < 50 | C=CC(=O)N1CCOC[C@@H](S(=O)(=O)c2ccc(N3CC(CN4CCC([C@@](CN5CCC5)(c5cccc(F)c5)[C@H]5CCC[C@@H]5NC(=O)OC)CC4)C3)c(F)c2)C1 [compound 218] |
| 8.70 | < 10 | < 10 | C=CC(=O)N1CCC[C@@H](S(=O)(=O)c2ccc(N3CC(CN4CCC([C@@](CN5CCC5)(c5cccc(F)c5)[C@H]5CCC[C@@H]5NC(=O)OC)CC4)C3)c(F)c2)C1 [compound 219] |
| 8.30 | < 50 | < 10 | C=CC(=O)N1CCCC[C@@H](S(=O)(=O)c2ccc(N3CC(CN4CCC([C@@](CN5CCC5)(c5cccc(F)c5)[C@H]5CCC[C@@H]5NC(=O)OC)CC4)C3)cc2)C1 [compound 220] |
| 8.40 | < 50 | < 50 | C=CC(=O)N1CCCC[C@@H](S(=O)(=O)c2ccc(N3CC(C)(CN4CCC([C@@](CN5CCC5)(c5cccc(F)c5)[C@H]5CCC[C@@H]5NC(=O)OC)CC4)C3)cc2)C1 [compound 222] |
| 8.40 | < 50 | < 50 | C=CC(=O)N1CCCC[C@@H](S(=O)(=O)c2ccc(N3CC(F)(CN4CCC([C@@](CN5CCC5)(c5cccc(F)c5)[C@H]5CCC[C@@H]5NC(=O)OC)CC4)C3)c(F)c2)C1 [compound 224] |
| 8.15 | < 100 | < 100 | C=CC(=O)N1CCCC[C@@H](S(=O)(=O)c2ccc(N3CC(C)(CN4CCC([C@@](CN5CCC5)(c5cccc(F)c5)[C@H]5CCC[C@@H]5NC(=O)OC)CC4)C3)c(F)c2)C1 [compound 225] |
| 8.10 | < 500 | < 100 | C=CC(=O)N1CCCC[C@@H](S(=O)(=O)c2ccc(N3CC(O)(CN4CCC([C@@](CN5CCC5)(c5cccc(F)c5)[C@H]5CCC[C@@H]5NC(=O)OC)CC4)C3)c(F)c2)C1 [compound 229] |
| 8.52 | < 500 | < 100 | C/C=C/S(=O)(=O)N1CCCC[C@@H](S(=O)(=O)c2ccc(N3CC(F)(CN4CCC([C@@](CN5CCC5)(c5cccc(F)c5)[C@H]5CCC[C@@H]5NC(=O)OC)CC4)C3)cc2)C1 [compound 233] |

The next lines start with the compound.

| Structure (SMILES) | pIC50 (menin protein) | IC50 (MOLM13) [nM] | IC50 (MV4-11) [nM] |
| --- | --- | --- | --- |
| COC(=O)N[C@H]1CCC[C@@H]1[C@](CN1CCC1)(c1cccc(F)c1)C1CCN(CC2CN(c3ccc(S(=O)(=O)C4CN(C(=O)/C=C/CN5CCCCC5)C4)cc3)C2)CC1 [Cpd. No. 24, methyl ((1S,2R)-2-((S)-2-(azetidin-1-yl)-1-(3-fluorophenyl)-1-(1-((1-(4-((1-((E)-4-(piperidin-1-yl)but-2-enoyl)azetidin-3-yl)sulfonyl)phenyl)azetidin-3-yl)methyl)piperidin-4-yl)ethyl)cyclopentyl)carbamate] | 8.52 | < 10 | < 10 |
| COC(=O)N[C@H]1CCC[C@@H]1[C@](CN1CCC1)(c1cccc(F)c1)C1CCN(CC2CN(c3ccc(S(=O)(=O)C4CN(C(=O)/C=C/CN5CC(F)(F)C5)C4)cc3)C2)CC1 [Cpd. No. 175] | 9.00 | < 10 | < 10 |
| C=CC(=O)Nc1cccc(S(=O)(=O)c2ccc(N3CC(F)(CN4CCC([C@@](CN5CCC5)(c5cccc(F)c5)[C@H]5CCC[C@@H]5NC(=O)OC)CC4)C3)c(F)c2)c1 [compound 80] | 8.70 | < 50 | < 50 |
| COC(=O)N[C@H]1CCC[C@@H]1[C@](CNC(C)=O)(c1cccc(F)c1)C1CCN(CC2CN(c3ccc(S(=O)(=O)C4CN(C(=O)/C=C/CN5CCCCC5)C4)c(CN4CC(F)C4)c3)C2)CC1 [compound 131] | 8.70 | < 10 | < 10 |
| C=CC(=O)N1CCCC[C@@H](S(=O)(=O)c2ccc(N3CC(F)(CN4CCC([C@@](CN5CCC5)(c5cccc(F)c5)[C@H]5CCC[C@@H]5NC(=O)OC)CC4)C3)cc2)C1 [compound 221] | 8.30 | < 50 | < 50 |
| C=CC(=O)N1CCCC[C@@H](S(=O)(=O)c2ccc(N3CC(CN4CCC([C@@](CN5CCC5)(c5cccc(F)c5)[C@H]5CCC[C@@H]5NC(=O)OC)CC4)C3)c(F)c2)C1 [compound 223] | 8.40 | < 50 | < 50 |
| C=CC(=O)N1CCCC[C@@H](S(=O)(=O)c2ccc(N3CC(CN4CCC([C@@](CN5CCC5)(c5cccc(F)c5)[C@H]5CCC[C@@H]5NC(=O)OC)CC4)(OC)C3)cc2)C1 [compound 226] | 8.52 | < 50 | < 50 |
| C=CC(=O)N1CCCC[C@@H](S(=O)(=O)c2ccc(N3CC(CN4CCC([C@@](CN5CCC5)(c5cccc(F)c5)[C@H]5CCC[C@@H]5NC(=O)OC)CC4)(OC)C3)c(F)c2)C1 [compound 227] | 8.15 | < 50 | < 50 |
| C=CC(=O)N1CCCC[C@@H](S(=O)(=O)c2ccc(N3CC(O)(CN4CCC([C@@](CN5CCC5)(c5cccc(F)c5)[C@H]5CCC[C@@H]5NC(=O)OC)CC4)C3)cc2)C1 [compound 228] | 8.15 | < 500 | < 50 |
| C=CC(=O)N1CCOC[C@@H](S(=O)(=O)c2ccc(N3CC(CN4CCC([C@@](CN5CCC5)(c5cccc(F)c5)[C@H]5CCC[C@@H]5NC(=O)OC)CC4)(OC)C3)c(F)c2)C1 [compound 230] | 8.30 | < 50 | < 50 |
| CC#CC(=O)N1CCCC[C@@H](S(=O)(=O)c2ccc(N3CC(F)(CN4CCC([C@@](CN5CCC5)(c5cccc(F)c5)[C@H]5CCC[C@@H]5NC(=O)OC)CC4)C3)cc2)C1 [compound 231] | 8.40 | < 500 | < 500 |
| CC#CC(=O)N1CCCC[C@@H](S(=O)(=O)c2ccc(N3CC(CN4CCC([C@@](CN5CCC5)(c5cccc(F)c5)[C@H]5CCC[C@@H]5NC(=O)OC)CC4)(OC)C3)c(F)c2)C1 [compound 232] | 8.52 | < 500 | < 100 |
